One assay relates to A549 (Homo sapiens). The assay is described as follows: Cytotoxicity against human A549 cells after 72 hrs by MTT assay. The note with it: A549, 72 h. On the technique in general: Tetrazolium dyes change colour on reduction, which living cells bring about.
The next assay concerns SMMC-7721. The assay is described as follows: Cytotoxicity against human SMMC7721 cells after 72 hrs by MTT assay. The following applies: SMMC-7721, 72 h.

Each structure is given as a SMILES string. pIC50: −log10 of the molar value.

For the compound `CCOC(=O)c1sc(-c2nc3ccccc3n2C)nc1C`, the pIC50 (usually −log10 of the IC50, conventionally taken in molar units) was less than 4.70 with A549 (Homo sapiens) and 4.86 in the assay with SMMC-7721.
Taken in the same sequence, the figures for `CCOC(=O)c1sc(-c2nc3ccccc3n2CC)nc1C` were less than 4.70 and 5.01.
Taken in the same sequence, the figures for `CCOC(=O)c1sc(-c2nc3ccccc3n2C(C)C)nc1C` were less than 4.70 and less than 4.70.
For the compound `CCOC(=O)c1sc(-c2nc3ccccc3n2Cc2ccccc2)nc1C`, the values for the pIC50 in the assay on A549 (Homo sapiens) and in the assay with SMMC-7721 were less than 4.70 and 5.56, respectively.
Taken in the same sequence, the figures for `CCOC(=O)c1csc(-c2nc3ccccc3n2C)n1` were less than 4.70 and 4.78.
Taken in the same sequence, the figures for `CCOC(=O)c1csc(-c2nc3ccccc3n2Cc2ccccc2)n1` were less than 4.70 and 4.89.
Taken in the same sequence, the figures for `CCOC(=O)c1csc(-c2nc3ccccc3n2CC)n1` were less than 4.70 and less than 4.70.
As to `CCOC(=O)Cc1csc(-c2nc3ccccc3n2C)n1`, the pIC50 in the assay with A549 (Homo sapiens) and in the assay on SMMC-7721 was less than 4.70 each time.
For `Cc1nc(-c2nc3ccccc3n2Cc2ccccc2)sc1C(=O)O`, the results for the pIC50 in the assay with A549 (Homo sapiens) and with SMMC-7721 were less than 4.70 and 4.82, respectively.
Taken in the same sequence, the figures for `Cc1nc(-c2nc3ccccc3n2Cc2ccccc2)sc1C(=O)NC(C)C` were 5.18 and 5.16.
Consider `CCN(CC)CCNC(=O)c1sc(-c2nc3ccccc3n2Cc2ccccc2)nc1C`, for which the pIC50 is 5.61 in the assay on A549 (Homo sapiens) and 5.94 in the assay on SMMC-7721.
Taken in the same sequence, the figures for `Cc1nc(-c2nc3ccccc3n2Cc2ccccc2)sc1C(=O)Nc1ccccc1` were 5.40 and 5.43.
Take `Cc1nc(-c2nc3ccccc3n2Cc2ccccc2)sc1C(=O)NC1CCCCC1`: the pIC50 is 5.28 in the assay with A549 (Homo sapiens) and 4.91 with SMMC-7721.
Taken in the same sequence, the figures for `Cc1nc(-c2nc3ccccc3n2Cc2ccccc2)sc1C(=O)N1CCCCC1` were less than 4.70 and less than 4.70.
In the case of `Cc1nc(-c2nc3ccccc3n2Cc2ccccc2)sc1C(=O)N1CCOCC1`, the pIC50 in the assay with A549 (Homo sapiens) and in the assay on SMMC-7721 was less than 4.70 each time.
`Cc1nc(-c2nc3ccccc3n2Cc2ccccc2)sc1C(=O)N1CCN(C)CC1`: the pIC50 is less than 4.70 in the assay with A549 (Homo sapiens) and 4.70 in the assay with SMMC-7721.
As for `CC(=O)O[C@H]1C(=O)[C@@]2(C)[C@H]([C@H](OC(=O)c3ccccc3)[C@]3(O)C[C@H](OC(=O)[C@H](O)[C@@H](NC(=O)c4ccccc4)c4ccccc4)C(C)=C1C3(C)C)[C@]1(OC(C)=O)CO[C@@H]1C[C@@H]2O` [PACLITAXEL], the pIC50 in the assay on SMMC-7721 is 5.85.

These data come from ChEMBL document CHEMBL1649386, “Synthesis and in vitro cytotoxic evaluation of some thiazolylbenzimidazole derivatives” (Eur J Med Chem, 2011).
